# Measurements published in article PMC4966929, “Two Distinct Cardiolipin Synthases Operate in Agrobacterium tumefaciens” (PLoS ONE, 2016).
# Target: T1, Cls2 (Agrobacterium fabrum, UniProt A9CHR9)
# T1 construct: gene cls; native full-length enzyme in A. tumefaciens crude extract (wild type and delta-cls1 lysates, assigned by loss in delta-cls2); about 54 kDa, not purified, no tag
# T1 sequence (A9CHR9 1-486): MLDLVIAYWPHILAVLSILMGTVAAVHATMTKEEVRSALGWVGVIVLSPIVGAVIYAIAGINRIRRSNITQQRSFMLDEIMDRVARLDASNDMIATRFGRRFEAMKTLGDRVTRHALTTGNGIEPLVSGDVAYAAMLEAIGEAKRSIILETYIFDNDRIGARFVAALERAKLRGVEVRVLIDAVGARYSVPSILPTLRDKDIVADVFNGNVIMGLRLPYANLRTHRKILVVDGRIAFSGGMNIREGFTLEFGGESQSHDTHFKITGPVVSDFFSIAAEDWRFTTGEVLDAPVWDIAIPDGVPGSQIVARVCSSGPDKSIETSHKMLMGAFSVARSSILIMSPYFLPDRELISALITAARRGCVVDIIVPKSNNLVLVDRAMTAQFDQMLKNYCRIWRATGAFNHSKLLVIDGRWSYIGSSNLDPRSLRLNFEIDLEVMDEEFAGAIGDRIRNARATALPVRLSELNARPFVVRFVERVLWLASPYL
# Assay: CL formation in crude extract of wild type and cls deletion strains, lipid extraction, 1D-TLC
# Type: biochemical
# Conditions: 0.4 mM lipid in micellar form, 0.02% Triton X-100, 50 mM Tris/HCl, 50 mM NaCl, pH 8, 30 C, 12 h; 300 ug total protein
smiles,measurement,value
"CCCCCCCC/C=C\CCCCCCCC(=O)OC[C@H](COP(=O)(O)OCC(O)CO)OC(=O)CCCCCCC/C=C\CCCCCCCC (mixture of isomers) [PG, 1,2-dioleoyl-sn-glycero-3-phospho-rac-(1-glycerol)]","CL formation in crude extract of wild type and cls deletion strains, lipid extra",suggesting that PG-dependent CL accumulation is mediated by Cls2
